In DBAASP one finds MIC data, which are given here for eight compounds.

Test systems include Bacillus subtilis; Escherichia coli; Proteus vulgaris; Pseudomonas aeruginosa; Salmonella typhimurium; Streptococcus pyogenes; Aspergillus fumigatus; Escherichia coli DC2; Escherichia coli UB1005; Candida albicans; Botrytis cinerea.
Holding throughout (assay): ≥ marks a high value that may be exact or a test limit, other limits are often not marked, values filed in µg/mL are converted to µM
Experiment [1] concerns Staphylococcus epidermidis.
The subject of experiment [2] is Enterococcus faecalis ATCC 29212.
For experiment [3], the system named is Escherichia coli ATCC 25922.
Experiment [4] relates to Streptococcus gordonii ATCC 10558.
The subject of experiment [5] is Streptococcus mutans GS-5.
In experiment [6] the test system is Streptococcus sanguinis ATCC 49295.
The subject of experiment [7] is Corynebacterium xerosis C875.
For experiment [8], the system named is Staphylococcus epidermidis C621.
The test system of experiment [9] is Candida albicans ATCC 10231.
The test system of experiment [10] is Escherichia coli ATCC 11775.
In experiment [11] the test system is Staphylococcus aureus ATCC 12600.
In experiment [12] the test system is Candida albicans ATCC 90028.
The subject of experiment [13] is Enterobacter cloacae HNTCC 53001.
The subject of experiment [14] is Klebsiella pneumoniae KK3 9904.
The test system of experiment [15] is Proteus mirabilis ATCC 25933.
The test system of experiment [16] is Pseudomonas aeruginosa ATCC 27853.
Experiment [17] relates to Staphylococcus aureus NCTC 8325.
The test system of experiment [18] is Staphylococcus epidermidis RP62A.
Experiment [19] relates to Erwinia amylovora PMV 6076.
For experiment [20], the system named is Pseudomonas syringae pv. syringae EPS 94.
Experiment [21] has as its system Xanthomonas campestris pv. Vesicatoria 2133-2.

≈ marks a conversion by molar mass, not a printed value. Some results are limits rather than exact numbers.

Turning to `CC(C)C[C@H](NC(=O)[C@H](CCCN=C(N)N)NC(=O)[C@@H]1CCCN1C(=O)[C@H](Cc1cnc[nH]1)NC(=O)[C@@H]1CCCN1C(=O)[C@@H]1CCCN1C(=O)[C@H](CCCN=C(N)N)NC(=O)[C@@H]1CCCN1C(=O)[C@@H]1CCCN1C(=O)[C@H](Cc1cnc[nH]1)NC(=O)[C@@H]1CCCN1C(=O)[C@@H]1CCCN1C(=O)[C@H](CCCN=C(N)N)NC(=O)[C@@H]1CCCN1C(=O)[C@@H]1CCCN1C(=O)[C@H](Cc1cnc[nH]1)NC(=O)[C@@H]1CCCN1C(=O)[C@@H]1CCCN1C(=O)[C@H](CCCN=C(N)N)NC(=O)[C@@H]1CCCN1)C(=O)O` [PRPPHPPRPPHPPRPPHPRL], the MIC with Bacillus subtilis is at least 64 µM; in the experiment with Escherichia coli, 0.5 µM (≈ 1.17 µg/mL); against Proteus vulgaris it was 2 µM (≈ 4.67 µg/mL); against Pseudomonas aeruginosa it was 16 µM (≈ 37.3 µg/mL); against Salmonella typhimurium, 0.5 µM (≈ 1.17 µg/mL); in [1], at least 64 µM. In the experiment on Streptococcus pyogenes, this compound registered an MIC of at least 64 µM.
With `CC(C)[C@H](NC(=O)[C@H](CO)NC(=O)[C@H](CCCN=C(N)N)NC(=O)[C@H](CCCN=C(N)N)NC(=O)[C@H](CCCN=C(N)N)NC(=O)[C@H](CCCN=C(N)N)NC(=O)CN)C(=O)N[C@@H](CCC(N)=O)C(=O)N[C@@H](Cc1c[nH]c2ccccc12)C(=O)N[C@@H](CS)C(=O)N[C@@H](C)C(=O)O` [GRRRRSVQWCA], the MIC against Aspergillus fumigatus is 5 µM (≈ 6.87 µg/mL); in [2], 72.8 µM (≈ 100 µg/mL); in experiment [3] it was 18.2 µM (≈ 25 µg/mL); in experiment [4], at least 46.6 µM; in [5], at least 34.9 µM; in experiment [6], at least 101 µM.
With `CC[C@H](C)[C@H](NC(=O)[C@H](C)NC(=O)[C@H](C)NC(=O)[C@H](C)NC(=O)[C@H](CCCCN)NC(=O)[C@@H](N)CCCCN)C(=O)N[C@@H](C)C(=O)N[C@@H](C)C(=O)N[C@@H](C)C(=O)N[C@@H](C)C(=O)N[C@@H](C)C(=O)N[C@H](C(=O)N[C@@H](C)C(=O)N[C@@H](C)C(=O)N[C@@H](Cc1c[nH]c2ccccc12)C(=O)N[C@@H](C)C(=O)N[C@@H](C)C(=O)N[C@H](C(=O)N[C@@H](C)C(=O)N[C@@H](C)C(=O)N[C@@H](C)C(=O)N[C@@H](CCCCN)C(=O)N[C@@H](CCCCN)C(=O)N[C@@H](CCCCN)C(=O)N[C@@H](CCCCN)C(N)=O)[C@@H](C)CC)[C@@H](C)CC` [KKAAAIAAAAAIAAWAAIAAAKKKK], the MIC in experiment [7] is 0.25 µM (≈ 0.594 µg/mL); against Escherichia coli DC2 it was 16 µM (≈ 38 µg/mL); in the experiment with Escherichia coli UB1005, at least 32 µM; in experiment [8], 4 µM (≈ 9.51 µg/mL).
Turning to `CC(C)C[C@H](NC(=O)[C@H](Cc1ccccc1)NC(=O)[C@@H]1CCCN1C(=O)[C@H](Cc1c[nH]c2ccccc12)NC(=O)[C@H](Cc1c[nH]c2ccccc12)NC(=O)[C@H](Cc1c[nH]c2ccccc12)NC(=O)[C@@H]1CCCN1C(=O)[C@H](Cc1ccccc1)NC(=O)[C@@H](N)CCCN=C(N)N)C(=O)N[C@@H](CCCN=C(N)N)C(=O)O` [RFPWWWPFLR], the MIC against Aspergillus fumigatus was at least 335 µM; with Candida albicans it was over 671 µM.
Turning to `CC[C@H](C)[C@H](N)C(=O)N[C@@H](CC(N)=O)C(=O)N1CCC[C@H]1C(=O)N[C@@H](CCCCN)C(=O)N[C@@H](CO)C(=O)N[C@H](C(=O)N[C@@H](CCC(N)=O)C(=O)N[C@@H](CO)C(=O)N[C@@H](CC(C)C)C(=O)N[C@@H](CC(C)C)C(N)=O)C(C)C` [INPKSVQSLL], the MIC in the experiment with Botrytis cinerea is at least 200 µM; in experiment [9], over 200 µM; in experiment [10] it was at least 200 µM; in experiment [11], at least 200 µM.
On to `CC[C@H](C)[C@H](NC(=O)[C@H](CC(=O)O)NC(=O)[C@@H](NC(=O)[C@@H](NC(=O)CN)C(C)C)C(C)C)C(=O)N[C@@H](CC(C)C)C(=O)N[C@@H](CCCCN)C(=O)NCC(=O)N[C@@H](C)C(=O)N[C@@H](C)C(=O)N[C@@H](CCCCN)C(=O)N[C@@H](CC(=O)O)C(=O)N[C@@H](CC(C)C)C(=O)N[C@@H](C)C(=O)NCC(=O)N[C@@H](Cc1c[nH]cn1)C(=O)N[C@@H](CC(C)C)C(=O)N[C@@H](C)C(=O)N[C@H](C(=O)N[C@@H](CCCCN)C(=O)N[C@H](C(=O)N[C@@H](CCSC)C(=O)N[C@@H](CC(N)=O)C(=O)N[C@@H](CCCCN)C(=O)N[C@@H](CC(C)C)C(N)=O)C(C)C)[C@@H](C)O` [GVVDILKGAAKDLAGHLATKVMNKL], for which the MIC in experiment [12] is at least 200 µM; in [13] it was at least 50 µM; in [2] it was over 200 µM; in experiment [3], 50 µM (≈ 128 µg/mL); in [14], at least 100 µM; in experiment [15] it was at least 200 µM. Moreover, the MIC is 100 µM (≈ 256 µg/mL) in [16], at least 200 µM in experiment [17] and at least 200 µM in experiment [18].
In the case of `CC[C@H](C)[C@H](NC(=O)CNC(=O)[C@H](CCC(N)=O)NC(=O)[C@H](Cc1ccccc1)NC(=O)[C@@H](NC(=O)[C@H](CCCCN)NC(=O)[C@H](CCCCN)NC(=O)[C@H](CC(C)C)NC(=O)[C@H](C)NC(=O)[C@H](CCCCN)NC(=O)[C@H](CC(C)C)NC(=O)CN)C(C)C)C(=O)N[C@@H](Cc1cnc[nH]1)C(=O)N[C@@H](CCCCN)C(=O)N[C@@H](C)C(=O)N[C@H](C(=O)N[C@@H](CCCCN)C(=O)N[C@@H](CC(C)C)C(=O)N[C@H](C(=O)N[C@@H](CC(N)=O)C(=O)N[C@@H](CC(N)=O)C(=O)N[C@@H](Cc1cnc[nH]1)C(=O)N[C@H](C(=O)N[C@@H](CCC(N)=O)C(=O)O)C(C)C)[C@@H](C)CC)[C@@H](C)CC` [GLKALKKVFQGIHKAIKLINNHVQ], the MIC in [12] is at least 80 µM; in [13], 10 µM (≈ 27 µg/mL); in experiment [2], over 80 µM; in experiment [3] it was 5 µM (≈ 13.5 µg/mL); in [14] it was 5 µM (≈ 13.5 µg/mL); in experiment [15] it was at least 80 µM. Moreover, the MIC in experiment [16] was 10 µM (≈ 27 µg/mL); in experiment [17], at least 40 µM; in experiment [18], 20 µM (≈ 54 µg/mL).
Take `CC[C@H](C)[C@H](NC(=O)[C@H](CCCCN)NC(=O)[C@H](CCCCN)NC(=O)[C@H](Cc1ccccc1)NC(=O)[C@H](CC(C)C)NC(=O)[C@H](CCCCN)NC(=O)[C@H](CCCCN)NC(=O)[C@H](CC(C)C)NC(=O)[C@H](Cc1ccc(O)cc1)NC(=O)[C@H](CCCCN)NC(=O)[C@H](CC(C)C)NC(=O)[C@@H](NC(=O)[C@H](CCCCN)NC(=O)[C@H](CCCCN)NC(=O)[C@H](Cc1ccccc1)NC(=O)[C@H](CC(C)C)NC(=O)[C@H](CCCCN)NC(=O)[C@@H](N)CCCCN)[C@@H](C)CC)C(=O)N[C@@H](CC(C)C)C(=O)N[C@@H](CCCCN)C(=O)N[C@@H](Cc1ccc(O)cc1)C(=O)N[C@@H](CC(C)C)C(=O)N[C@@H](CCCCN)C(=O)N[C@@H](CC(=O)O)C(=O)N[C@@H](CCC(=O)O)C(=O)N[C@@H](CC(C)C)C(=O)O` [KKLFKKILKYLKKLFKKILKYLKDEL]: the MIC in [19], in experiment [20] and in experiment [21] was 14.1 µM (≈ 46.8 µg/mL) throughout.

The term MIC denotes the lowest concentration that inhibits growth of the organism. A lower MIC goes with greater potency.
